Assays:
[1] = Stability in human whole blood; assay type: in vitro ADME
Procedure: However, in human whole blood incubations, no loss of RVT-1201 was observed. […] Therefore, metabolism of RVT-1201 was assigned to a cytosolic carboxylesterase (CES1) within the PBPK model. Although the enzyme responsible for RVT-1201 elimination and KAR5417 formation has not been identified, CES1 was selected to represent the enzymatic metabolism of RVT-1201 for this fit-for-purpose PBPK model.

CYP2C9 = CYP2C9 (Homo sapiens, UniProt P11712); assay: FDA guidance DDI risk assessment, perpetrator potential; design: from tissue; host or cells: pooled human liver microsomes (n=200 donors); settings: predicted @ 600 mg BID
Procedure: (§1) The potential for rodatristat ethyl or rodatristat to be perpetrators of drug-drug interactions was assessed across in vitro CYP and transporter studies (Tables 1-4). […] This analysis was performed to assess the potential for clinically meaningful DDIs as recommended in FDA Draft Guidance: “In Vitro Metabolism- and Transporter-Mediated Drug-Drug Interaction Studies Guidance for Industry”; October 2017 (FDA, 2017).
(§2) R1 and R3 values using free (non-protein bound) drug levels were calculated based on plasma protein binding (fraction bound, fb) of rodatristat ethyl (0.995) and rodatristat (0.991). The FDA Guidance is set forth In Vitro Metabolism- and Transporter-Mediated Drug-Drug Interaction Studies Guidance for Industry (2017). […] Parameters for the prediction are set forth below in Tables 5 and 6.

CYP1A2 = target: T1, CYP1A2 (Homo sapiens, UniProt P05177); assay: as above; design: from tissue; host or cells: pooled human liver microsomes (n=200 donors); settings: predicted @ 600 mg BID
T1 sequence (P05177 1-516): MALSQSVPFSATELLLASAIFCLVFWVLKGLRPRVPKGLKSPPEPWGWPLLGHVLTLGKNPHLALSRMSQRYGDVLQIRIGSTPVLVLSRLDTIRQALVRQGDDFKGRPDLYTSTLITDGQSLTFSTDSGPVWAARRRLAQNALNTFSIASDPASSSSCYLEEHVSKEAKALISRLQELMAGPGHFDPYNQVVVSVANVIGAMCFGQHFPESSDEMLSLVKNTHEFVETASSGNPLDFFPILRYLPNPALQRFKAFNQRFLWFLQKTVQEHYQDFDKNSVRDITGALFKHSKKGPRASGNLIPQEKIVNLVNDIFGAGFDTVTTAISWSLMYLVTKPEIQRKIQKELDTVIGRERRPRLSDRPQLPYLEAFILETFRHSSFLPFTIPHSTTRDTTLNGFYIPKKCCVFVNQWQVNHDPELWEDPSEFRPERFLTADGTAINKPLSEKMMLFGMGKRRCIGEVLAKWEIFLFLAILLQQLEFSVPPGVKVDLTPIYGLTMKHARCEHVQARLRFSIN
Procedure: as §1, §2

CYP2C8 = target: T2, CYP2C8 (Homo sapiens, UniProt P10632); assay: as above; design: from tissue; host or cells: pooled human liver microsomes (n=200 donors); settings: for Potential for interaction (perpetrator), CYP2C8: predicted @ 600 mg BID
T2 sequence (P10632 1-490): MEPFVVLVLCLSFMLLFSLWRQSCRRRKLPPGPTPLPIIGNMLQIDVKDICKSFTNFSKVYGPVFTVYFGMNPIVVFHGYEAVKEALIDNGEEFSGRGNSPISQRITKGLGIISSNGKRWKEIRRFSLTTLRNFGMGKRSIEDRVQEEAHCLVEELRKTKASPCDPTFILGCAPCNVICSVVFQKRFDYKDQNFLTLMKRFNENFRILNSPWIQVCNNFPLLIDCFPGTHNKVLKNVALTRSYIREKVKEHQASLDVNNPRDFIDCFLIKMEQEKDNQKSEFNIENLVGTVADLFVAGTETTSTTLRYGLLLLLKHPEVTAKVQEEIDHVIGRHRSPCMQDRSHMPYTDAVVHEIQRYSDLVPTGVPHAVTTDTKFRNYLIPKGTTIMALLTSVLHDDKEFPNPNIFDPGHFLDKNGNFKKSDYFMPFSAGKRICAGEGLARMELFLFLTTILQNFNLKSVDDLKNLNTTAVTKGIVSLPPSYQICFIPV
Procedure: as §1, §2

[2] = Biopharmaceutics Classification System class; assay type: physicochemical
Description: RVT-1201 is a Biopharmaceutics Classification System (BCS) Class II or IV molecule with in vitro permeability consistent with oral bioavailability, which has been evaluated in a Phase 1 single ascending dose (SAD)/multiple ascending dose (MAD) study using a simple immediate release (IR) drug-in-capsule formulation (Clinical Study KAR5585-101). The active pharmaceutical ingredient used in this clinical study was polymorph Form 1. An optimized/enhanced oral formulation was developed with a goal to improve patient acceptance, increase the oral bioavailability relative to the IR capsule formulation to facilitate a dose reduction, reduce inter-subject variability and to optimize a formulation process suitable for larger scale manufacture. An oral IR tablet formulation and 2 spray-dried dispersion suspensions using polymorph Form 3 were investigated in a second clinical study (Clinical Study RVT-1201-1001). The purpose of this study was to assess the performance of selected formulations following oral administration to healthy subjects.

Elimination route in rat = assay type: in vivo
Description: The metabolism of rodatristat ethyl is predominantly by esterase mediated hydrolysis of the ester pro-drug moiety to rodatristat in liver tissue preparations from human, rat, dog, and cynomolgus monkey, and intestinal and lung tissues from rat and human. Hydrolysis of rodatristat ethyl was also observed in rat blood, and to a much lesser extent in dog and human blood.

[3] = Rat 14C study, fraction of oral dose absorbed; assay type: in vivo
Description: Calculation of Cmax, u, portal uses plasma Cmax, fraction of an oral dose absorbed (Fa) and measured unbound fraction in blood. For rodatristat, experimentally derived values were used for Fa determined in a rat 14C study (20%) and in vitro binding to human plasma (99.1%) and blood:plasma distribution (RB, 0.72). Walsky et al proposed a threshold where the ratio of Cmax, u, portal/Ki of <0.1 is associated with low risk. […] In the rat, the RE:R is ˜3-fold higher in portal blood compared to the periphery.

Chain of CYP2C9 (P11712 whole entry): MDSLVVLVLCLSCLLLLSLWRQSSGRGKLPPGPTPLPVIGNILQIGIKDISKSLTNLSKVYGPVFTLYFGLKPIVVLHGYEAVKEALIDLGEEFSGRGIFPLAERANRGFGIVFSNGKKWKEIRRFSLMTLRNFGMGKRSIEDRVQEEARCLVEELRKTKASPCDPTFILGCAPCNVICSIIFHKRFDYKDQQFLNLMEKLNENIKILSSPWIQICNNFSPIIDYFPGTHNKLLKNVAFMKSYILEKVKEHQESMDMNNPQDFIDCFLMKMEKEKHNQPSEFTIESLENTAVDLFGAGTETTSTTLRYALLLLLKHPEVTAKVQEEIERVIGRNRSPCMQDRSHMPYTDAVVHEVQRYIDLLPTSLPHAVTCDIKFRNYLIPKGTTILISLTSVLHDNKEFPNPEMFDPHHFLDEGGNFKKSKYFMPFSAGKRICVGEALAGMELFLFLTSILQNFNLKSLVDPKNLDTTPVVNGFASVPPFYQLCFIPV

SMILES | Loss in human whole blood incubations [1] | Potential for interaction (perpetrator), CYP2C9 (CYP2C9) | Potential for interaction (perpetrator), CYP1A2 (CYP1A2) | Potential for interaction (perpetrator), CYP2C8 (CYP2C8) | Biopharmaceutics Classification System (BCS) Class [2] | Elimination route (Elimination route in rat) | Fraction of an oral dose absorbed (Fa) [3] | Ratio of unbound Cmax to Ki, CYP2C8 (CYP2C8; 600 mg BID)
CCOC(=O)[C@@H]1CC2(CCN(c3cc(O[C@H](c4ccc(Cl)cc4-c4ccccc4)C(F)(F)F)nc(N)n3)CC2)CN1 [Rodatristat ethyl, (S)-ethyl 8-(2-amino-6-((R)-1-(5-chloro-[1,1′-biphenyl]-2-yl)-2,2,2-trifluoroethoxy)pyrimidin-4-yl)-2,8-diazaspiro[4.5]decane-3-carboxylate] | no loss | No | No | No | II or IV |  |  | 
Nc1nc(O[C@H](c2ccc(Cl)cc2-c2ccccc2)C(F)(F)F)cc(N2CCC3(CC2)CN[C@H](C(=O)O)C3)n1 [Rodatristat, (S)-8-(2-amino-6-((R)-1-(5-chloro-[1,1′-biphenyl]-2-yl)-2,2,2-trifluoroeth-oxy)pyrimidin-4-yl)-2,8-diazaspiro[4.5]decane-3-carboxylic acid] |  | No | No | No |  | largely eliminated unchanged in bile | 20% | 0.014

Reference: patent US20230074252A1, “DOSAGES AND METHODS FOR TREATING PULMONARY ARTERIAL HYPERTENSION WITH RODATRISTAT” (Altavant Sciences GmbH, priority 2020, published 2023)
